Counter-ions that a name gives are not always drawn. Like-named read-outs stand apart in the source and are kept apart here.
Experiments:
[1] = test system: P. falciparum 3D7-infected erythrocytes; assay: Plasmodium falciparum growth inhibition assay (SYBR Green I, flow cytometry), drug-sensitive strain; assay type: cell-based
Method: (§1) Plates were incubated under standard P. falciparum culture conditions for 48 h. […] Fixed parasitized red blood cells (RBC) were stored at 4 °C in the dark until flow cytometry analysis. Parasite growth was assessed by flow cytometry on a BD FACS Cantoll (BD Biosciences) or a Attune™ NxT Flow Cytometer (Invitrogen). Cell doublets were excluded from the analysis using a forward scatter (FSC)-width versus FSC-area dot plot. Infected and uninfected erythrocytes were gated on the basis of their FSC and side scatter (SSC) signals. Fluorescence analysis (Green fluorescence FITC) was performed using BD FACSDiva software (BD Biosciences) on a total of 200,000 acquired events. […] Fluorescence of non-infected RBC was adjusted to plot between 10° and 10^2. Results are expressed as the percentage of growth inhibition.
(§2) All IC50 values were calculated using log-linear interpolation (www.antimalarial-icestimator.net), with mean values (± SD) determined over at least two independent experiments.

[2] = test system: multidrug-resistant P. falciparum line Dd2; assay: Plasmodium falciparum growth inhibition assay (SYBR Green I, flow cytometry), multidrug-resistant line; assay type: cell-based; conditions: Plasmodium falciparum, DD2, 48 h, line resistant to CQ, PYR and mefloquine, mean ± SD, n ≥ 2, read-out: PfDd2 IC50
Method: as §1, §2

[3] = test system: P. berghei ANKA parasites; assay: Peters 4-day suppressive test, oral efficacy in P. berghei-infected mice; assay type: in vivo, Plasmodium berghei
Method: Compounds powder was dissolved in DMSO and sonicated for 10 min. Appropriate volume of 50%W/v HPβCD was added dropwise under gentle swirling. After 10 min sonication, DPBS was added dropwise under gentle swirling and the mixture was sonicated again for 10 min. After checking the pH (5.5 - 7), the solution was filtered (0.22µm) and conserved at room temperature for max 2 days. Final concentration of compounds was 2.5 mg/mL, 1 mg/mL or 0.1 mg/mL for mice treatment with 25 mg/kg, 10 mg/kg or 1mg/kg doses.
10 weeks-old Balb/C male mice were purchased from Janvier Labs.
P. berghei ANKA parasites stabilates conserved in liquid nitrogen were thawed and injected intraperitoneally (ip) into 2-3 mice (10^6 infected red blood cells (RBC) / mouse). When parasitemia reached 3-5%, mice were bled and groups of six BALB/c male mice were infected with 10^6 P. berghei ANKA parasites (day 0), and treated per os (p.o.) twice a day on days 0, 1, 2 and 3. […] On day 4 post infection (p.i.), the peripheral blood parasitemia of all mice was evaluated via microscopic examination of Giemsa-stained thin blood smears. Parasitemia was then followed for two weeks.

[4] = Plasmodium falciparum, 3D7, Erythrocyte, 48 h incubation, mean ± SD, n ≥ 2, read-out: Pf3D7 IC50
[5] = Plasmodium falciparum, 3D7, Erythrocyte, 48 h incubation, read-out: IC50 (Pf3D7)
[6] = Experiment 3, Balb/C mice, 1 mg/kg p.o. twice a day on days 0-3, day 4 p.i.
[7] = Experiment 3, Balb/C mice, 1 mg/kg p.o. twice a day on days 0-3, day 5 p.i.
[8] = Experiment 3, Balb/C mice, 1 mg/kg p.o. twice a day on days 0-3, day 6 p.i.
[9] = Experiment 3, Balb/C mice, 1 mg/kg p.o. twice a day on days 0-3, day 7 p.i.
[10] = Experiment 3, Balb/C mice, 1 mg/kg p.o. twice a day on days 0-3, day 8 p.i.
[11] = Experiment 3, Balb/C mice, 1 mg/kg p.o. twice a day on days 0-3, day 10 p.i.
[12] = Plasmodium falciparum, 3D7, Erythrocyte, 48 h, read-out: Pf3D7 IC50

## CCc1nc(N)nc(N)c1OCCCOc1ccccc1CCC(=O)NO.Cl [1·HCl, 3-(2-[3-(2,4-Diamino-6-ethylpyrimidin-5-yloxy)propoxy]phenyl)-N-hydroxypropanamide hydrochloride]
[1]; [4]
  IC50: 0.17 ± 0.018 nM
[1]; [5]
  IC50: < 0.2 nM
[2]
  IC50: 19.8 ± 0.9 nM
[3]; Experiment 1 (Fig. 1), Balb/C mice, 10mg/kg and 25mg/kg orally twice a day on days 0,1,2,3
  activity in vivo against Plasmodium berghei: active in vivo
[3]; Experiment 3, 1 mg/kg p.o. twice a day on days 0-3, day 4 p.i.
  parasites in treated mice: undetectable
[3]; [6]
  number of mice showing blood parasites: 0/6
  parasitemia (mean ± sd): 0%
[3]; [7]
  number of mice showing blood parasites: 1/6
  parasitemia (mean ± sd): 0,07 ± 0,16%
[3]; [8]
  number of mice showing blood parasites: 1/6
  parasitemia (mean ± sd): 0,15 ± 0,37%
[3]; [9]
  number of mice showing blood parasites: 1/6
  parasitemia (mean ± sd): 0,31 ± 0,76%
[3]; [10]
  number of mice showing blood parasites: 1/6
  parasitemia (mean ± sd): 1,31 ± 3,21%
[3]; [11]
  number of mice showing blood parasites: 1/6
  parasitemia (mean ± sd): 0,7 ± 1,72%
[3]; Experiments 1 and 2, 10 mg/kg p.o. twice a day on days 0-3, day 4 p.i.
  parasites in treated mice: undetectable
[3]; Experiments 1 and 2, 10 mg/kg p.o. twice a day on days 0-3, until the end of the experiments
  parasites in treated mice, follow-up: remained undetectable
[3]; oral route, 10 mg/kg
  parasite clearance after oral administration: achieved parasite clearance

## CCc1nc(N)nc(N)c1OCCCCOc1ccccc1CCC(=O)NO [3·HCl, 3-(2-[4-(2,4-Diamino-6-ethylpyrimidin-5-yloxy)butoxy]phenyl)-N-hydroxypropanamide hydrochloride]
[1]; [4]
  IC50: 0.451 ± 0.088 nM

## CCc1nc(N)nc(N)c1OCCCOc1cc(OC)ccc1CCC(=O)NO [4·HCl, 3-(2-[3-(2,4-Diamino-6-ethylpyrimidin-5-yloxy)propoxy]-4-methoxyphenyl)-N-hydroxypropanamide hydrochloride]
[1]; [4]
  IC50: 0.173 ± 0.122 nM
[1]; [5]
  IC50: < 0.2 nM
[2]
  IC50: 6.2 ± 0.5 nM

## CCc1nc(N)nc(N)c1OCCCOc1cc(Cl)ccc1CCC(=O)NO [5·HCl, 3-(4-Chloro-2-[3-(2,4-diamino-6-ethylpyrimidin-5-yloxy)propoxy]phenyi)-N-hydroxypropanamide hydrochloride]
[1]; [12]
  IC50: 0.279 ± 0.154 nM

## CCc1nc(N)nc(N)c1OCCCOc1cc(OC)ccc1/C=C/C(=O)NO [14·HCl, (E)-3-{2-[3-(2,4-Diamino-6-ethylpyrimidin-5-yloxy)propoxy]-4-methoxyphenyl}-N-hydroxyacrylamide hydrochloride]
[1]; [4]
  IC50: 0.088 ± 0.02 nM
[1]; [5]
  IC50: < 0.1 nM

## CCc1nc(N)nc(N)c1OCCOc1cccc(/C=C/C(=O)NO)c1 [18·HCl, (E)-3-(3-[2-(2,4-Diamino-6-ethylpyrimidin-5-yloxy)ethoxy]phenyl)-N-hydroxyacrylamide hydrochloride]
[1]; [4]
  IC50: 0.249 ± 0.015 nM

## CCc1nc(N)nc(N)c1OCCCOc1cccc(/C=C/C(=O)NO)c1 [19·HCl, (E)-3-{3-[3-(2,4-Diamino-6-ethylpyrimidin-5-yloxy)propoxy]phenyl}-N-hydroxyacrylamide hydrochloride]
[1]; [4]
  IC50: 0.173 ± 0.021 nM
[1]; [5]
  IC50: < 0.2 nM
[2]
  IC50: 41.5 ± 11.9 nM

## CCc1nc(N)nc(N)c1OCCCOc1ccc(/C=C/C(=O)NO)cc1 [20·HCl, (E)-3-{4-[3-(2,4-Diamino-6-ethylpyrimidin-5-yloxy)propoxy]phenyl}-N-hydroxyacrylamide hydrochloride]
[1]; [4]
  IC50: 0.117 ± 0.045 nM
[1]; [5]
  IC50: < 0.2 nM

## CCN(CC)CCCC(C)Nc1ccnc2cc(Cl)ccc12 (centres unmarked) [CQ, chloroquine, reference compound]
[1]; [12]
  IC50: 4.7 ± 1.7 nM
[3]; Experiment 3, positive control, 10 mg/kg p.o. once a day for 4 days, day 4 p.i.
  parasitemia (mean ± sd): 0%
[3]; Experiment 3, positive control, 10 mg/kg p.o. once a day for 4 days, day 5 p.i.
  parasitemia (mean ± sd): 0%
[3]; Experiment 3, positive control, 10 mg/kg p.o. once a day for 4 days, day 6 p.i.
  parasitemia (mean ± sd): 0%
[3]; Experiment 3, positive control, 10 mg/kg p.o. once a day for 4 days, day 7 p.i.
  parasitemia (mean ± sd): 0%
[3]; Experiment 3, positive control, 10 mg/kg p.o. once a day for 4 days, day 8 p.i.
  parasitemia (mean ± sd): 0%
[3]; Experiment 3, positive control, 10 mg/kg p.o. once a day for 4 days, day 10 p.i.
  parasitemia (mean ± sd): 0%

## CCc1nc(N)nc(N)c1OCCCOc1ccccc1CCC(=O)NOCc1ccccc1 [Compound 7, N-(Benzyloxy)-3-(2-(3-(2,4-diamino-6-ethylpyrimidin-5-yloxy)propoxy)phenyl)propanamide]
[1]; [4]
  IC50: 0.497 ± 0.055 nM

## CCc1nc(N)nc(N)c1OCCCOc1cc(C(=O)NO)ccc1Cl [Compound 9, 4-Chloro-3-[3-(2,4-diamino-6-ethylpyrimidin-5-yloxy)propoxy]-N-hydroxybenzamide]
[1]; [4]
  IC50: 0.172 ± 0.027 nM
[1]; [5]
  IC50: < 0.2 nM
[2]
  IC50: 16.9 ± 3.2 nM

## CCc1nc(N)nc(N)c1OCCCOc1cc(C(=O)NO)ccc1F [Compound 10, 3-(3-[2,4-Diamino-6-ethylpyrimidin-5-yloxy)propoxy]-4-fluoro-N-hydroxybenzamide]
[1]; [4]
  IC50: 0.39 ± 0.012 nM

## CCc1nc(N)nc(N)c1OCCCOc1cccc(C(=O)NOCc2ccc(OC(C)=O)cc2)c1 [Compound 11, N-(4-Acetoxybenzyloxy)-3-[3-(2,4-diamino-6-ethylpyrimidin-5-yloxy)propoxy]benzamide]
[1]; [4]
  IC50: 1.02 ± 0.68 nM
[1]; [5]
  IC50: < 0.2 nM
[3]; Experiment 3, 1 mg/kg p.o. twice a day on days 0-3
  ranking of activity against P. berghei infection: most active

## CCc1nc(N)nc(N)c1OCCCOc1cc(Cl)ccc1/C=C/C(=O)NO [Compound 15, (E)-3-{4-Chloro-2-[3-(2,4-diamino-6-ethylpyrimidin-5-yloxy)propoxy]phenyl}-N-hydroxyacrylamide]
[1]; [4]
  IC50: 0.082 ± 0.007 nM
[1]; [5]
  IC50: < 0.1 nM
[2]
  IC50: 4 ± 0.4 nM

## CCc1nc(N)nc(N)c1OCCCOc1ccccc1/C=C/C(=O)NOCc1ccc(OC(C)=O)cc1 [Compound 16, (E)-N-(4-Acetoxybenzyloxy)-3-{2-[3-(2,4-diamino-6-ethylpyrimidin-5-yloxy)propoxy]phenyl}acrylamide]
[1]; [4]
  IC50: 0.067 ± 0.005 nM
[1]; [5]
  IC50: < 0.1 nM
[3]; [6]
  number of mice showing blood parasites: 1/5
[3]; Experiment 3, Balb/C mice, 1 mg/kg p.o. twice a day on days 0-3, day 4 p.i., 1 mg/kg
  parasitemia (mean ± sd): 0,02 ± 0,04%
[3]; [7]
  number of mice showing blood parasites: 2/5
  parasitemia (mean ± sd): 0,48 ± 0,72%
[3]; [8]
  number of mice showing blood parasites: 3/5
  parasitemia (mean ± sd): 2,22 ± 2,44%
[3]; [9]
  number of mice showing blood parasites: 3/5
  parasitemia (mean ± sd): 5,21 ± 7,86%
[3]; [10]
  number of mice showing blood parasites: 5/5
  parasitemia (mean ± sd): 5,33 ± 5,64%
[3]; [11]
  number of mice showing blood parasites: 5/5
  parasitemia (mean ± sd): 9,25 ± 7,38%

## CCc1nc(N)nc(N)c1OCCCOc1ccccc1/C=C/C(=O)NOCc1ccccc1 [Compound 17, (E)-N-(Benzyloxy)-3-{2-[3-(2,4-diamino-6-ethylpyrimidin-5-yloxy)propoxy]phenyl}acrylamide]
[1]; [4]
  IC50: 0.331 ± 0.124 nM

## CCc1nc(N)nc(N)c1OCCCOc1cccc(COc2cccc(/C=C/C(=O)NO)c2)c1 [Compound 21, (E)-3-(3-(3-[3-(2,4-Diamino-6-ethylpyrimidin-5-yloxy)propoxy]benzyloxy)phenyl)-N-hydroxyacrylamide hydrochloride]
[1]; [4]
  IC50: 0.347 ± 0.047 nM

## CCc1nc(N)nc(N)c1OCCCOc1cccc(C(=O)NCCCCCCC(=O)NO)c1 [Compound 30, 3-{3-[(2,4-Diamino-6-ethylpyrimidin-5-yl)oxy]propoxy}-N-[7-(hydroxyamino)-7-oxoheptyl]benzamide]
[1]; [4]
  IC50: 0.876 ± 0.018 nM

## CCc1nc(N)nc(N)c1OCCCOc1ccc(C(=O)NCCCCCCC(=O)NO)cc1 [Compound 31, 4-{3-[(2,4-Diamino-6-ethylpyrimidin-5-yl)oxy]propoxy}-N-[7-(hydroxyamino)-7-oxoheptyl]benzamide]
[1]; [4]
  IC50: 0.404 ± 0.136 nM
[2]
  IC50: 22.8 ± 2.6 nM

## N-(4-Acetoxybenzyloxy)-3-(2-(3-(2,4-diamino-6-ethylpyrimidin-5-yloxy)propoxy)phenyl)propenamide [Compound 6]
[1]; 48 h incubation, mean ± SD, n ≥ 2, read-out: Pf3D7 IC50
  IC50: 0.169 ± 0.041 nM

Source: patent EP4438596A1, “DIAMINOPYRIMIDINE DERIVATIVES AS HDAC AND DHFR DUAL-TARGETING INHIBITORS AND USE THEREOF IN PREVENTING AND TREATING MALARIA” (Université de Lille, priority 2023, dated 2024)
